Laboratory results from patent publication US20110059104A1, “Apo-2L receptor agonist and CPT-11 synergism” (Genentech, Inc., priority 2000, published 2011).
“Also recorded” adds a separate entry of the source. Where a SMILES comes first, the peptide text is derived from it. The star is where a group is joined. Cbz = O=C(OCc1ccccc1)*; CH2F = FC*

Columns and labels:
DR4 mRNA in HCT116 cells = experiment: bDNA assay of DR4 mRNA; assay type: cell-based, human
Excerpt: Total RNA was isolated using the RNA stat-60™ solution (Tel-Test, Inc (Friendsweed, Tex.) according to manufacturer's instruction. The Quantigene bDNA™ signal amplification kit (Chiron diagnostics; East Walpole, Mass.) was used to evaluate mRNA levels. The sequence of GAPDH probe sets was as recommended by the manufacturer. The DR4 probe sets were lined within the region of nucleic acid residues 9 to 582. There were 5 capture probes, 16 labeling probes and 8 blocking probes. The DR5 probe sets were lined within the region of nucleic acid residues 13-591. There were 5 capture probes, 17 labeling probes and 5 blocking probes for DR5. The specificity of the probes was tested using RNA from in vitro transcription using recombinant DcR1, DcR2, DR4 and DR5 constructs. Both DR4 and DR5 probe sets were highly specific for their own RNA transcripts. The signal from each probe sets was linear with the concentrations tested. bDNA assays were performed according to manufacturer's instructions using about 2 μg of total RNA/well.

DR5 mRNA in HCT116 cells = experiment: bDNA assay of DR5 mRNA; assay type: cell-based, human
Method: The specificity of the probes was tested using RNA from in vitro transcription using recombinant DcR1, DcR2, DR4 and DR5 constructs.

HCT116 cells [1] = experiment: Flow cytometric cell cycle analysis, HCT116; assay type: cell-based, human
Method: Cell cycle analysis was performed via FACS analysis. HCT116 and HUVEC cells were incubated and treated as described in the figure legends. After the treatments, both floating cells in the medium aid live cells in the plate were collected. Cycle TEST PLUS DNA™ reagent kit (Beckon Dickinson; San Jose, Calif.) was used to stain cells according to manufacturer's instruction. The stained cells were analyzed in a FACS sorter (Becton Dickinson). The percentage of apoptotic cells containing a sub-G1 DNA content was quantitated using the CellQuest program. The percentage of live cells in each phase of cell cycle was quantitated using the ModFit LT program.

[2] = tested on: HCT116 colon cancer cells; experiment: AlamarBlue cell viability assay; assay type: cell-based, human; conditions: 24 hours; CPT-11 50 μg/ml, Apo2L/TRAIL 1 μg/ml
Method: (§1) An AlamarBlue™ assay was used to determine the cell viability. HCT116 colon cancer cells (˜10000 cells/well) were incubated overnight in 10% FBS RPMI 1640 medium in 96-well tissue culture plates. […] AlamarBlue™ was added to the wells for the last 6 hours of the 24 hours incubation time. Fluorescence was read using 96-well fluorometer plate reader with an excitation of 530 nm and emission of 590 nm (CytoFluor multi-well plate reader series 4000, PerSeptive Biosystems; Framingham, Mass.). In addition, the Molecular probes Live/Dead^R viability/cytotoxicity kit (Eugene, Oreg.) was used to evaluate the presence of live or dead cells. In these assays, Calcein-Am (4 μM) and ethidium homodimer-1 (2 μM) were added to treated cells 15 minutes before inspecting the cultures under an Axiovert 25 (Zeiss; Thornwood, N.Y.) fluorescence microscope equipped with fluorescein (calcein) and rhodamine (ethidium homodimer-1) filters.

HCT116 cells [3] = experiment: Live/Dead viability/cytotoxicity fluorescence microscopy (calcein-AM, ethidium homodimer-1); assay type: cell-based, human
Method: as §1

[4] = tested on: p53 protein in HCT116 cells; experiment: p53 protein western blot, HCT116; assay type: cell-based, human; conditions: HCT116 tumor cells; 2 and 24 hours; hydrochloride trihydrate
Method: (§2) For Western blotting, cells were lysed in 20 mM Tris-HCl, pH 7.4 containing 10% glycerol, 1% Triton-x100, 150 mM NaCl and protease inhibitors (1 mM PMSF, 10 μg/ml Aprotinin, 10 μg/ml Leupeptin, Sigma). Aliquots of 50 μg of total protein per well were separated in a NuPAGE 4-12% Bis-Tris gel with NuPAGE MES SDS running buffer (Novex; San Diego, Calif.). The gels were transferred to […] pure nitrocellulose membrane (Bio-Rad) by semi-dry transfer cell (Bio-dad; Hercules, Calif.) with NuPAGE transfer buffer. The membranes were blocked with PBS containing 5% nonfat dry milk and incubated with primary antibodies against the proteins of interest followed by a horseradish […] secondary antibody (Amersham; Braunschweig, Germany). Immunoreactivo bands were visualized by the enhanced chemiluminescencesystem (Amersham; Braunschweig, Germany). The antibodies used in this study were: Anti-caspase-3 (Stratagene, #200021; La Jolla, Calif.), anti-p53 and anti-p21 (Oncogene, #0P43 and #0P64; Cambridge, Mass.), and anti-FLIP (#343002, Calbiochem, San Diego, Calif.). The antibodies were used at the concentrations recommended by the manufacturers.

[5] = tested on: p21 protein in HUVEC cells; experiment: p21 protein western blot, HUVEC; assay type: cell-based, human; conditions: normal HUVEC cells; 24 hours
Method: as §2

[6] = tested on: p53 protein in HUVEC cells; experiment: p53 protein western blot, HUVEC; assay type: cell-based, human; conditions: normal HUVEC cells; 2 and 24 hours; hydrochloride trihydrate
Method: as §2

[7] = tested on: p21 protein in HCT116 cells; experiment: p21 protein western blot, HCT116; assay type: cell-based, human
Method: as §2

[8] = tested on: COLO205 colon carcinoma cells; experiment: COLO205 colon carcinoma tumor growth in athymic nude mice (Example 1)
Method: The colon carcinoma cell line COLO205 (available from NCI) were grown and maintained according to the supplier's methods. Briefly, COLO205 cells were cultured in high glucose DMEM/F12 (50:50) media containing 10% fetal bovine serum and 2.0 mM L-Glutamine. […] CPT-11 (Camptosar®) was obtained from Pharmacia & Upjohn.

[9] = tested on: HCT116 colon cancer cells; experiment: Crystal violet cell survival assay; assay type: cell-based, human; conditions: SN-38 0.05 microgram/ml; FIG. 15
Method: A crystal violet assay was also used. […] The medium was removed the following day, and the cells were incubated for 24 or 48 hours in the fresh medium containing the various agents noted above. At the end of each treatment, the medium was removed and 100 μl of 0.5% crystal violet solution was added to each well and incubated at room temperature for 10 minutes before washing with water. After the wells were dry, 100 μl of ethanol containing 0.5 N HCL was added to each well. The plates were then read at 540 nm using a 96-well plate reader (Spectra Max 340pc, Molecular Devices Corporation, Sunnyvale, Calif.).

[10] = 24 hours of treatment, without Z-VAD

CC(NC(=O)C(NC(=O)OCc1ccccc1)C(C)C)C(=O)NC(CC(=O)O)C(=O)CF (stereo not drawn) [Z-VAD] (Cbz-Val-Ala-Asp-CH2F; configuration not given here)
increase in DR4 mRNA in the presence of Z-VAD (DR4 mRNA in HCT116 cells; 24 hours, with Z-VAD): did not block | increase in DR5 mRNA in the presence of Z-VAD (DR5 mRNA in HCT116 cells; 24 hours, with Z-VAD): did not block | effect of caspase inhibitor on Apo2L/TRAIL-mediated apoptosis (HCT116 cells [1]; HCT116): effectively blocked Apo2L/TRAIL-mediated apoptosis

CCc1c2c(nc3ccc(OC(=O)N4CCC(N5CCCCC5)CC4)cc13)-c1cc3c(c(=O)n1C2)COC(=O)[C@]3(O)CC.Cl.O.O.O [CPT-11, (4S)-4,11-diethyl-4-hydroxy-9-[(4-piperidino-piperidino)carbonyloxyl]-1H-pyrano[3′,4′:6,7]indolizino [1,2-b]quinoline-3,14(4H,12H)dione hydrochloride trihydrate]
effect on Apo2L/TRAIL-mediated apoptosis (number of live cells) [2]: enhanced Apo2L/TRAIL-mediated apoptosis in vitro | morphological changes / cell killing (HCT116 cells [3]; 2 hours of treatment): did not show any morphological changes | cell death (HCT116 cells [3]; 24 hours of treatment): a few dead cells were clearly present | increase in DR4 mRNA compared with controls (DR4 mRNA in HCT116 cells; 2 hours of treatment): not at 2 hours | increase in DR4 mRNA compared with controls (DR4 mRNA in HCT116 cells; [10]): 2.5 fold | increase in DR5 mRNA expression compared with controls (DR5 mRNA in HCT116 cells; 2 hours of treatment): not at 2 hours | increase in DR5 mRNA compared with controls (DR5 mRNA in HCT116 cells; [10]): 2.5 fold | induction of DR5 expression by CPT-11 in vitro (DR5 mRNA in HCT116 cells; time of exposure, hydrochloride trihydrate): can be observed after two hours exposure or incubation; also recorded: induced in vitro following exposure of cells to 50 microgram/ml CPT-11 for 6 hours | p53 protein level [4]: strong and sustained induction of p53 expression; also recorded: increase in p53 protein levels | p21 protein level [5]: large induction of p21 protein | p53 protein level [6]: strong and sustained induction of p53 expression; also recorded: increase in p53 protein levels | time profile of changes in p21 protein levels ([7]; CPT-11 incubation): increases as early as 4 hours of treatment | p21 protein level ([7]; HCT116 tumor cells, 24 hours): large induction of p21 protein | animals in which tumor growth resumed several days after the treatment period ([8]; 9 mice per group): 9 animals | effect on tumor growth ([8]; s.c. COLO205 tumors, Apo-2L 30 mg/kg/day days 0-4 and 7-11, CPT-11 80 mg/kg/day days 0, 4, 8, 34 days): suppressed tumor growth during the treatment period | cells in Go-G1 (cell cycle arrest) (HCT116 cells [1]; 6 hours, control 30%): 76% | Go-G1 phase (HCT116 cells [1]; 24 hours): clear reduction in Go-G1 phase | cells in G2-M phase (arrest) (HCT116 cells [1]; 24 hours, control 19%): 43% | apoptosis (sub-G1 DNA content) (HCT116 cells [1]; 24 hours, control cells 1%): 9%

CCc1c2c(nc3ccc(O)cc13)-c1cc3c(c(=O)n1C2)COC(=O)[C@]3(O)CC [SN38]
tumor cell death with SN38 instead of CPT-11 in combination and sequential treatments with Apo2L/TRAIL [9]: Increased tumor cell death
